Patent publication US6905834B1, “Bioluminescent bioreporter integrated circuit detection methods” (UT-Battelle, LLC, priority 1997, dated 2005)
Like-named read-outs stand apart in the source and are kept apart here. Marks after values point to notes of the source that are not given here.

Key:
P. putida TVA8 = type: cell-based, Pseudomonas putida; settings: for light response (in words): approximately 50 mg/L (JP-4 approx. 2%), 2 h; for Specific Bioluminescence: approximately 50 mg/L
P. putida B2 = test: Immobilized cell reactor (DVR) with alginate-encapsulated P. putida B2: bioluminescence and TCE co-metabolism; type: cell-based, Pseudomonas putida
Description: In the batch and reactor studies, bioluminescence was measured using a photomultiplier, which converts the light to an electric current. The photomultiplier in the resting cell assays and the reactor system was connected to a computer and bioluminescence as namps current was recorded.
P. putida B2 was encapsulated in alginate beads for the immobilized cell reactor system. Cells were grown in 1 L LB to an OD546 of 1.2 and were centrifuged at 5500×g for 10 min, washed three times in 0.9% NaCl and suspended in 40 ml 0.9% NaCl. The cell suspension was added to 80 ml of an alginic acid solution (28 g L^−1 low viscosity alginate, 0.9% NaCl) (Webb, 1992). The cell-alginate suspension was placed in a 60-ml syringe, forced through a 25-gauge needle, and allowed to drop into a 0.5 M CaCl2 Solution. The alginate was cross-linked by the Ca^2+ ions, thus encapsulating the cells. The cells were subsequently placed in a fresh solution of 0.1 M CaCl2 and allowed to sit for 30 min prior to use.
A differential volume reactor (DVR) was used to simulate a section of an ideal plug flow reactor. Influent to the reactor was dispersed through a porous metal frit to provide a flat velocity profile to the bed. The reactor measured 5.0 cm i.d.×5.0 cm long. A complete description of this reactor can be found in Webb et al. (1991). In this investigation, a system was designed incorporating the DVR as illustrated in FIG. 17. The system was equipped with three Millipore (Bedford, Mass.) stainless steel substrate containers rated to 690 kPa. The feed from the substrate vessels to the reactor inlet was controlled by two Filson (Middleton, Wis.) 301 HPLC pumps. A flow rate of 0.4 ml min^−1 was maintained. The substrate vessels were pressurized with oxygen to provide the system with an electron acceptor. All medium vessels contained trace mineral medium (Lackey et al., 1993) with the addition of 3 mg L^−1 pyruvic acid and a 0.1 M solution of Tris-base (pH 7.0). phosphate buffers were not used since phosphate ions complex with Ca^2+ ions and disrupt with alginate crosslinking. In addition to this medium, two of the vessels contained either TCE or toluene. The inlet concentration of toluene was altered by using square-wave perturbations with 20-h cycles (10 h with toluene, 10 h without toluene) using an HPLC pump controlled by a timer. During feed portions of the cycle, 10 mg L^−1 toluene was introduced into the inlet of the reactor. The inlet TCE concentration was constant at 20 mg L^−1.
Analysis of TCE in the reactor effluent was performed online using a stripping column (12.5 cm length and 0.4 cm inner diameter) packed with 3-mm glass beads to provide adequate surface area for TCE separation. TCE was stripped with helium, the GC carrier gas. The stripping column outlet was attached to a gas chromatograph (GC, Hewlett Packard (Wilmington, Del.) (HP) 5890 Series II) with an electron capture detector by a heated sample line maintained at 75° C. Automatic injections (25 μl) were made by a computerized control process (HP Chem Station software). The GC was equipped with a cross-linked methyl silicone capillary column (length 30 n, i.d 0.2 mm, 0.33-μm film thickness) while the oven was operated isothermally at 60° C. Other operating parameters included an injection temperature of 150° C., detector temperature of 200° C. and a split ratio of 10:1. This system was equipped with a bypass line around the reactor in order to calibrate the stripping column.
Toluene samples were removed at 0.5-ml aliquots from the effluent sampling port (FIG. 17) and injected into 1.5 ml sample vials. Headspace analysis was performed using a Shimadzu (Columbia, Md.) GC-9A gas chromatograph equipped with a 2.44-m, 3.2-mm diameter Poropak N packed column and a flame ionization detector. The isothermal temperature of the oven was 210° C., and both the detector and injector temperatures were 220° C.

[1] = exposure 2 hours, normalized to final OD546, average ± SD of three replicates
[2] = inlet TCE 20 mg/L, toluene being introduced

In the case of c1ccccc1 [Benzene, benzene], the “light response (in words)” value (P. putida TVA8) is reported as “significant light response” and the “Specific Bioluminescence” value (P. putida TVA8; [1]) is reported as 242 ± 9 namp/OD.
With CCc1ccccc1 [Ethylbenzene, ethylbenzene] the “induction of bioluminescence response in pre-grown cells” value (P. putida TVA8; 50 mg/L, cells previously grown on ethylbenzene, growing cell assays) was “induce the bioluminescence response without a lag period”, the “Specific Bioluminescence” value (P. putida TVA8; [1]) was 1.0 ± 0.2 namp/OD and the “Specific Bioluminescence” value (P. putida TVA8; exposure 4 hours, from a similar but separate study) was 47 ± 6^c namp/OD.
With Oc1ccccc1 [Phenol, phenol] the “light response (in words)” value (P. putida TVA8) was “significant light response” and the “Specific Bioluminescence” value (P. putida TVA8; [1]) was 70 ± 2 namp/OD.
For ClC=C(Cl)Cl [TCE, trichloroethylene], the “toxic effects of continuous TCE exposure (in words)” value (P. putida B2; 20 mg/l TCE) was “there did not appear to be any toxic effects”, the “induction of the tod operon by TCE (in words)” value (P. putida B2; absence of toluene, 20 mg/L TCE) was “did not appear to induce the tod operon” and the TCE removal (P. putida B2; [2]) was 20%. The “steady-state TCE effluent concentration” value (P. putida B2; [2]) was 16.5 ± 0.2 mg/L.
Cc1cccc(C)c1 [m-xylene] was tested, and the “light response (in words)” value (P. putida TVA8) was “significant light response” and the “Specific Bioluminescence” value (P. putida TVA8; [1]) was 38 ± 3 namp/OD.
For Cc1ccccc1C [o-xylene], the “light response (in words)” value (P. putida TVA8) was “no increase of bioluminescence” and the “Specific Bioluminescence” value (P. putida TVA8; [1]) was 0.5 ± 0.1 namp/OD.
With Cc1ccc(C)cc1 [p-xylene] the “light response (in words)” value (P. putida TVA8) was “significant light response” and the “Specific Bioluminescence” value (P. putida TVA8; [1]) was 24 ± 2 namp/OD.
